Test results as given in US11447466B2, “Substituted indole compounds useful as inhibitors of TLR7/8/9” (BRISTOL-MYERS SQUIBB COMPANY, priority 2017, dated 2022).

Legend:
Assay type in all cases: cell-based
human TLR7 = biological target: T1, human TLR7 (Homo sapiens, UniProt Q9NYK1); assay: TLR7 inhibition reporter assay (HEK-Blue SEAP reporter, gardiquimod stimulation); conditions: HEK-Blue cells overexpressing human TLR7, SEAP reporter, gardiquimod 7.5 μM, 22 hour incubation
T1 construct: host or cells: HEK-Blue cells
T1 sequence (Q9NYK1 27-1049): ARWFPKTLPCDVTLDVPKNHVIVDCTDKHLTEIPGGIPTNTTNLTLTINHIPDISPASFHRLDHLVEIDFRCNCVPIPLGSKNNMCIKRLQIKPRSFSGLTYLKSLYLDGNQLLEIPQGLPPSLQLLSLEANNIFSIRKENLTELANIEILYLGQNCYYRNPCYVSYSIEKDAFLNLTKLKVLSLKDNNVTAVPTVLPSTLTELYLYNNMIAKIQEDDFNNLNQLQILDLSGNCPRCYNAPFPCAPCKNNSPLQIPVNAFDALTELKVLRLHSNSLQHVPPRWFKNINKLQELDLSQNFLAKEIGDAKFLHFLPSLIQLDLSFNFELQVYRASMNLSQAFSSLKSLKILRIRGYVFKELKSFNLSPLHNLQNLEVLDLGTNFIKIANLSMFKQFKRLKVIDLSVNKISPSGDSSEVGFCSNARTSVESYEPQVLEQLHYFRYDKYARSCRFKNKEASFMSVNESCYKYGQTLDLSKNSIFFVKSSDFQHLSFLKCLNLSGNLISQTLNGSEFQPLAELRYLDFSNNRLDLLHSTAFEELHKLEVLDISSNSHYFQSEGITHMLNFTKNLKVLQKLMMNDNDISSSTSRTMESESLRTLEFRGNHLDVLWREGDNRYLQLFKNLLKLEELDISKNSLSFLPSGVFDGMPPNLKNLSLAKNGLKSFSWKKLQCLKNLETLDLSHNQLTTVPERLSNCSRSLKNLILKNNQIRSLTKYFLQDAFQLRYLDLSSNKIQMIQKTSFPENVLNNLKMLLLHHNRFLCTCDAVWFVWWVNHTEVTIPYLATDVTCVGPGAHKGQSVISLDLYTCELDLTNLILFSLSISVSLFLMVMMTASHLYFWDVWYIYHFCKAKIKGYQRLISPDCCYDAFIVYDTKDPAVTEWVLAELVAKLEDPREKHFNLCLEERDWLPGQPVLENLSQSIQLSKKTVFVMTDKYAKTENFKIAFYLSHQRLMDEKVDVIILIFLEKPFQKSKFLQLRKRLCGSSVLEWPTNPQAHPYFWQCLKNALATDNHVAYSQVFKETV
Summary of the method: (§1)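 Dose–response from 0.05 nM to 50 μM was run in HEK-Blue human TLR7, TLR8 and TLR9 reporter cells. After 30 min at room temperature with compound, ligand was added (TLR7 gardiquimod 7.5 μM; TLR8 R848 15.9 μM; TLR9 ODN2006 5 nM) and SEAP measured next day, at 22 h.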

human TLR8 = biological target: T2, human TLR8 (Homo sapiens, UniProt Q9NR97); assay: TLR8 inhibition reporter assay (HEK-Blue SEAP reporter, R848 stimulation); conditions: HEK-Blue cells overexpressing human TLR8, SEAP reporter, R848 15.9 μM, 22 hour incubation
T2 construct: host or cells: HEK-Blue cells
T2 sequence (Q9NR97 27-1041): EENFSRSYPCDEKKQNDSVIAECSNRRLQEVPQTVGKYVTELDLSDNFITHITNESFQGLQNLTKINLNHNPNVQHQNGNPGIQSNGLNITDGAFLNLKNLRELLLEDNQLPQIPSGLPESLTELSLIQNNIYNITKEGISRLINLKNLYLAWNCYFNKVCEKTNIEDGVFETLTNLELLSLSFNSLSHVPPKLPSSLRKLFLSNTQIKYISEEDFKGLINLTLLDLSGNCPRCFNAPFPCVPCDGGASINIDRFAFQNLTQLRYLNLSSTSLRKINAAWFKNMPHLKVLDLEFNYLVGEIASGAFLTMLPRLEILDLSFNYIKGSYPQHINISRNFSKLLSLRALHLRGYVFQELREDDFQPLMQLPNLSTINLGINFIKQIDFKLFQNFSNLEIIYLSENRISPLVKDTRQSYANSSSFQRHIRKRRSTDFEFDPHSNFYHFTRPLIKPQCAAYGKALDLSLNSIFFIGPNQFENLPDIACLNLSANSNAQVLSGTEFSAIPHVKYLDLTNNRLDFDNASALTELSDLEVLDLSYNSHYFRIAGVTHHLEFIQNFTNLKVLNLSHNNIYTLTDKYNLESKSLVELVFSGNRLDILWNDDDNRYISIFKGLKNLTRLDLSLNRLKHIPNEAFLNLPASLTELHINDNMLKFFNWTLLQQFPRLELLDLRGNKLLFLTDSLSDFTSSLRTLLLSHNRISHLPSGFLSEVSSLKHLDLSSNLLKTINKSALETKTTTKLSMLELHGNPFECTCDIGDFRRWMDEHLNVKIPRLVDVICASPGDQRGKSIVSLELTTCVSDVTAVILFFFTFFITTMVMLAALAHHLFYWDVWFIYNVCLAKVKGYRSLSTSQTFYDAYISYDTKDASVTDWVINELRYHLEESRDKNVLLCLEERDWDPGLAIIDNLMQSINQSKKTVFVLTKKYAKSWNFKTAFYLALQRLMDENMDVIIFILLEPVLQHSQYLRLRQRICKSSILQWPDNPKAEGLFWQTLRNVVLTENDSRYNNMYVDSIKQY
Summary of the method: as §1

human TLR9 = biological target: T3, human TLR9 (Homo sapiens, UniProt Q9NR96); assay: TLR9 inhibition reporter assay (HEK-Blue SEAP reporter, ODN2006 stimulation); conditions: HEK-Blue cells overexpressing human TLR9, SEAP reporter, ODN2006 5 nM, 22 hour incubation
T3 construct: host or cells: HEK-Blue cells
T3 sequence (Q9NR96 26-1032): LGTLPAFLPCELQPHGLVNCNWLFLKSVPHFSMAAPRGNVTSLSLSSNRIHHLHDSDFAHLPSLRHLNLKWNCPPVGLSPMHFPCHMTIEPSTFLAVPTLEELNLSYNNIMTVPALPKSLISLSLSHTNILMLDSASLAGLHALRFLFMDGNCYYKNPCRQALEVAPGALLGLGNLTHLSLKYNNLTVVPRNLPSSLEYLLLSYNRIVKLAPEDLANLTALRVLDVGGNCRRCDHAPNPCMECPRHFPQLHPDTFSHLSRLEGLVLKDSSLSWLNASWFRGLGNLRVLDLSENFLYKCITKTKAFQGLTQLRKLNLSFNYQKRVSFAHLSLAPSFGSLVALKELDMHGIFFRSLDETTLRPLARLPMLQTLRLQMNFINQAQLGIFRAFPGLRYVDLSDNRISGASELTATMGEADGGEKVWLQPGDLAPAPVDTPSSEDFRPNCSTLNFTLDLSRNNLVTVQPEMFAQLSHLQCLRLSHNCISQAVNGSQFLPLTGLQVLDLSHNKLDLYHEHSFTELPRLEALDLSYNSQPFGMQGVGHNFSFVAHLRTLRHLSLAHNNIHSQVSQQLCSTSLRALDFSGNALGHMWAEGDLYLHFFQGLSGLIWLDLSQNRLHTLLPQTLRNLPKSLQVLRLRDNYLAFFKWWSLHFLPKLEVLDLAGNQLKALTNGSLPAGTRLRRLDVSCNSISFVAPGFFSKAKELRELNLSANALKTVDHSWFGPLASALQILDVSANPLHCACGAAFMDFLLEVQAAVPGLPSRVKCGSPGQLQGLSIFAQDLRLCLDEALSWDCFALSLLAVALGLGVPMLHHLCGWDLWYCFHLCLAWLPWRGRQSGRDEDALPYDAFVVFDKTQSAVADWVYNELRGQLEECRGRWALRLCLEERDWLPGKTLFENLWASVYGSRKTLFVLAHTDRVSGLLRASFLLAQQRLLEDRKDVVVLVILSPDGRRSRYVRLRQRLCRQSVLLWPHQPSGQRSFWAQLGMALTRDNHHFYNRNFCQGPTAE
Summary of the method: as §1

SMILES	IC50 (human TLR7) [nM]	IC50 (human TLR8) [nM]	IC50 (human TLR9) [nM]
CC(=O)N1CC(N2CCC(c3ccc4[nH]c(-c5cn(C)c(=O)c(Cl)c5C)c(C(C)C)c4c3)CC2)C1 [Example 174, 5-(5-(1-(1-acetylazetidin-3-yl)piperidin-4-yl)-3-isopropyl-1H-indol-2-yl)-3-chloro-1,4-dimethylpyridin-2(1H)-one]	15.7	44.8	≥ 50000
CC(=O)Nc1cccc(-c2cc(-c3[nH]c4ccc(C5CCNCC5)cc4c3C(C)C)cn(C)c2=O)c1 [Example 60, N-(3-(5-(3-isopropyl-5-(piperidin-4-yl)-1H-indol-2-yl)-1-methyl-2-oxo-1,2-dihydropyridin-3-yl)phenyl)acetamide]	90.3	211	3060
CCn1cc(-c2[nH]c3ccc(C4CCN(C5COC5)CC4)cc3c2C(C)C)cc(C)c1=O [Example 204, 1-ethyl-5-(3-isopropyl-5-(1-(oxetan-3-yl)piperidin-4-yl)-1H-indol-2-yl)-3-methylpyridin-2(1H)-one]	14.6	18	≥ 50000
Cc1cc(-c2[nH]c3ccc(C4CCN(C5CCOCC5)CC4)cc3c2C(C)C)cn(CC(C)C)c1=O [Example 262, 1-isobutyl-5-(3-isopropyl-5-(1-(tetrahydro-2H-pyran-4-yl)piperidin-4-yl)-1H-indol-2-yl)-3-methylpyridin-2(1H)-one]	47.7	52.3	2120
Cc1cc(-c2[nH]c3ccc(C4CCN(C(=O)CN5CCCC5=O)CC4)cc3c2C(C)C)cn(C)c1=O [Example 300, 5-(3-isopropyl-5-(1-(2-(2-oxopyrrolidin-1-yl)acetyl)piperidin-4-yl)-1H-indol-2-yl)-1,3-dimethylpyridin-2(1H)-one]	42.6	42.5	≥ 50000
COc1c(C)c(-c2[nH]c3ccc(C4CCN(C5COC5)CC4)cc3c2C(C)C)cn(C)c1=O [Example 215, 5-(3-isopropyl-5-(1-(oxetan-3-yl)piperidin-4-yl)-1H-indol-2-yl)-3-methoxy-1,4-dimethylpyridin-2(1H)-one]	66.1	54.9	17200
Cc1cc(-c2[nH]c3ccc(C4CCNCC4)cc3c2C(C)C)cn(CCCO)c1=O [Example 38, 1-(3-hydroxypropyl)-5-(3-isopropyl-5-(piperidin-4-yl)-1H-indol-2-yl)-3-methylpyridin-2(1H)-one]	51.2	30.3	3030
CC(C)c1c(-c2cc(C(F)(F)F)c(=O)n(C)c2)[nH]c2ccc(C3CCNCC3)cc12 [Example 41, 5-(3-isopropyl-5-(piperidin-4-yl)-1H-indol-2-yl)-1-methyl-3-(trifluoromethyl)pyridin-2(1H)-one]	18	158	1120
Cc1ccc(-c2cc(-c3[nH]c4ccc(C5CCNCC5)cc4c3C(C)C)cn(C)c2=O)cc1 [Example 55, 5-(3-isopropyl-5-(piperidin-4-yl)-1H-indol-2-yl)-1-methyl-3-(p-tolyl) pyridin-2(1H)-one]	13.9	203	2290
CC(C)CN1CCC(c2ccc3[nH]c(-c4cc(-c5ccccc5)c(=O)n(C)c4)c(C(C)C)c3c2)CC1 [Example 89, 5-(5-(1-isobutylpiperidin-4-yl)-3-isopropyl-1H-indol-2-yl)-1-methyl-3-phenylpyridin-2(1H)-one]	16.9	4.5	1960
COCc1cc(-c2[nH]c3ccc(C4CCN(CC(C)(C)O)CC4)cc3c2C(C)C)cn(C)c1=O [Example 323, 5-(5-(1-(2-hydroxy-2-methylpropyl)piperidin-4-yl)-3-isopropyl-1H-indol-2-yl)-3-(methoxymethyl)-1-methylpyridin-2(1H)-one]	18.4	13.9	7180
Cc1cc(-c2[nH]c3ccc(C4CCN(Cc5ncn(C)n5)CC4)cc3c2C(C)C)cn(C)c1=O [Example 72, 5-(3-isopropyl-5-(1-((1-methyl-1H-1,2,4-triazol-3-yl)methyl)piperidin-4-yl)-1H-indol-2-yl)-1,3-dimethylpyridin-2(1H)-one]	21.8	17.3	≥ 50000
CCCN1CCC(c2ccc3[nH]c(-c4cn(C)c(=O)c(Cl)c4C)c(C(C)C)c3c2)CC1 [Example 242, 3-chloro-5-(3-isopropyl-5-(1-propylpiperidin-4-yl)-1H-indol-2-yl)-1,4-dimethylpyridin-2(1H)-one]	3.2	5.1	2680
COc1cc(-c2[nH]c3ccc(C4CCN(C5CCOCC5)CC4)cc3c2C(C)C)cn(C)c1=O [Example 201, 5-(3-isopropyl-5-(1-(tetrahydro-2H-pyran-4-yl)piperidin-4-yl)-1H-indol-2-yl)-3-methoxy-1-methylpyridin-2(1H)-one]	4	4.4	959
